According to publication PMC9078972 (RSC Advances, 2018):
Converted amounts (≈) assume the structure as drawn.

Tested on: Mycobacterium tuberculosis H37Ra
Test: microbe, parasite or virus in culture
Type: cell-based

In the case of `CCCCN1CCN(c2nc(=O)c3cc(C(F)(F)F)cc([N+](=O)[O-])c3s2)CC1=O` [Compound 1d, 2-(4-Butyl-3-oxopiperazin-1-yl)-8-nitro-6-(trifluoromethyl)-4H-benzo[e][1,3]-thiazin-4-one], the MIC was 0.034 µM (≈ 0.0146 µg/mL).
